{"source": "paper PMC12643509", "about": "“High-throughput screens identify genotype-specific therapeutics for channelopathies” (JCI Insight, 2025)", "molecular_target": "WT Kv11.1 (Homo sapiens, UniProt Q12809)", "sequence (Q12809 whole entry)": "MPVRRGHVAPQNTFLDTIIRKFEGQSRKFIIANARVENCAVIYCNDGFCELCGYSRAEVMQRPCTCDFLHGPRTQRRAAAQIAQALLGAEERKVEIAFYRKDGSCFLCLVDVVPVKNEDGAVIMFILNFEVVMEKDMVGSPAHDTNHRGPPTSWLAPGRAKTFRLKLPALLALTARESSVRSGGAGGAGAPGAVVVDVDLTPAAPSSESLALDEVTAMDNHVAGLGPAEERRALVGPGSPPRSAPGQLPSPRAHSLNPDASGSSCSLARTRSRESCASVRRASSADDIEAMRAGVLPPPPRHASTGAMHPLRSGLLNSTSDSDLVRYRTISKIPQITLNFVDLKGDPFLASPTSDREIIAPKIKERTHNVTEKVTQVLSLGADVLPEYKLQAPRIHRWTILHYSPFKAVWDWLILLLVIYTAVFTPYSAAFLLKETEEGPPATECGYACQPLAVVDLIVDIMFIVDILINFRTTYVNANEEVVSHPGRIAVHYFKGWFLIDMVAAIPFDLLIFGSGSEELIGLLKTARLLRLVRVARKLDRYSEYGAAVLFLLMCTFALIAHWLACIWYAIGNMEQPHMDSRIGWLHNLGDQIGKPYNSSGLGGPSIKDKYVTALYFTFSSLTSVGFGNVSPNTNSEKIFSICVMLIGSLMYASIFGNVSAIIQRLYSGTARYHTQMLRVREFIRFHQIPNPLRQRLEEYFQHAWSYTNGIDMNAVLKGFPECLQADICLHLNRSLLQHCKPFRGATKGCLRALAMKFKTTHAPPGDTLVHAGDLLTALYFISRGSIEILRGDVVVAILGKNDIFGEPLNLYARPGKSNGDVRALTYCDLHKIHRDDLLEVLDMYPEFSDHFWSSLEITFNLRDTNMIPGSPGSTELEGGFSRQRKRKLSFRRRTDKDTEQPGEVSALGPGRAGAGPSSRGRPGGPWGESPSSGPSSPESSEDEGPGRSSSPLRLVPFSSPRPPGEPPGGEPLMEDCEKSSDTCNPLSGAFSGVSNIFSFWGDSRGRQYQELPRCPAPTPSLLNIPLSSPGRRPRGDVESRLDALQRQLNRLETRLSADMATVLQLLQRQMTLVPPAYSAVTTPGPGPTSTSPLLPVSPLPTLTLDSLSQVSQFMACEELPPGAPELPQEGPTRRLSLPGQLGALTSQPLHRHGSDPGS", "experiment": "Whole-cell patch-clamp electrophysiology, drug in bath solution, WT", "type": "cell-based", "set-up": "expressed in transfected cells; Activation tail currents / Steady-state currents / Time constants of activation (τ): unit not given here", "settings": "for Steady-state currents / Activation tail currents / peak tail currents (I-V relationship): WT, individual cells; for Steady-state currents / Activation tail currents: evacetrapib 15 μmol/L; for Activation tail currents: tail at –40 mV; for peak tail currents (I-V relationship): evacetrapib 15 μmol/L in bath; for Figure 4B value per cell vs Voltage (mV) / Figure 4D value per cell vs Voltage (mV) / Figure 5E value per cell vs Voltage (mV) / Figure 5F value per cell vs Voltage (mV): individual replicates", "from_the_text": "Peak stea dy-sta te current was\nTail current was fit with a […]", "note": "Values joined by “and” are separate entries in the source; they are usually repeats but may differ in a detail not shown here. Identical values can stand only once."}
{"smiles": "Cc1cc(C)c2c(c1)[C@@H](N(Cc1cc(C(F)(F)F)cc(C(F)(F)F)c1)c1nnn(C)n1)CCCN2C[C@H]1CC[C@H](C(=O)O)CC1", "note": "[Evacetrapib, evacetrapib]", "values": [{"measurement": "Steady-state currents", "setting": "Voltage (mV) 10", "value": "32.8981 and 20.4014 and 36.7833 and 17.1944 and 20.5841 and 27.8135 and 21.9511 and 36.7956 and 27.3543 and 47.5782 and 26.4245"}, {"measurement": "Activation tail currents", "setting": "Voltage (mV) 10", "value": "61.4581 and 36.6943 and 61.1695 and 48.7606 and 43.5182 and 102.425 and 47.3892 and 33.802 and 80.7764 and 116.916 and 59.6106"}, {"measurement": "peak tail currents (I-V relationship)", "setting": "Voltage (mV) 20", "value": "76.997 and 51.8869 and 61.5888 and 71.295 and 62.4196 and 45.36 and 26.1159 and 13.7511 and 17.275 and 9.104"}, {"measurement": "Steady-state currents", "setting": "Voltage (mV) 20", "value": "22.6993 and 18.9152 and 37.889 and 17.2911 and 21.9338 and 23.7154 and 29.6022 and 43.1925 and 20.5026 and 37.4057 and 19.7431"}, {"measurement": "Activation tail currents", "setting": "Voltage (mV) 20", "value": "71.9787 and 45.4439 and 63.7225 and 61.2461 and 53.0993 and 122.955 and 54.7189 and 46.6431 and 82.6403 and 123.849 and 59.1491"}, {"measurement": "peak tail currents (I-V relationship)", "setting": "Voltage (mV) 30", "value": "61.9853 and 42.564 and 49.6862 and 55.8776 and 49.9256 and 37.5621 and 17.4891 and 11.2899 and 12.2347 and 6.843"}, {"measurement": "Steady-state currents", "setting": "Voltage (mV) 30", "value": "13.8134 and 15.2335 and 30.8124 and 15.3878 and 19.0656 and 16.8628 and 32.7435 and 42.003 and 14.0184 and 26.2752 and 15.6099"}, {"measurement": "Activation tail currents", "setting": "Voltage (mV) 30", "value": "78.4549 and 49.9729 and 64.1927 and 68.2058 and 57.9705 and 130.879 and 57.8601 and 56.5419 and 81.1964 and 126.769 and 58.6074"}, {"measurement": "peak tail currents (I-V relationship)", "setting": "Voltage (mV) 40", "value": "49.0637 and 36.1043 and 40.7824 and 44.6525 and 42.1084 and 30.3986 and 12.7193 and 9.659 and 9.23 and 5.4472"}, {"measurement": "Steady-state currents", "setting": "Voltage (mV) 40", "value": 8.152}, {"measurement": "Activation tail currents", "setting": "Voltage (mV) 40", "value": "80.9925 and 51.9387 and 63.2186 and 69.4712 and 59.5512 and 133.68 and 59.6841 and 61.1492 and 78.5713 and 128.32 and 57.9252"}, {"measurement": "peak tail currents (I-V relationship)", "setting": "Voltage (mV) -10", "value": "121.614 and 76.2939 and 89.915 and 120.029 and 102.147 and 69.7054 and 87.5927 and 30.4321 and 56.9661 and 25.473"}, {"measurement": "Steady-state currents", "setting": "Voltage (mV) -10", "value": "39.4793 and 7.634 and 11.4994 and 5.42 and 5.3991 and 14.8809 and 6.707 and 15.12 and 14.6222 and 35.1249 and 21.6894"}, {"measurement": "peak tail currents (I-V relationship)", "setting": "Voltage (mV) -20", "value": "131.419 and 84.709 and 100.756 and 135.254 and 114.81 and 74.7542 and 102.167 and 37.4476 and 77.7339 and 32.9646"}, {"measurement": "Steady-state currents", "setting": "Voltage (mV) -20", "value": "32.9524 and 3.6817 and 4.46 and 2.8711 and 2.362 and 6.4831 and 3.43 and 7.428 and 4.804 and 18.1098 and 9.611"}, {"measurement": "Activation tail currents", "setting": "Voltage (mV) -20", "value": 15.0143}, {"measurement": "peak tail currents (I-V relationship)", "setting": "Voltage (mV) -30", "value": "132.826 and 89.7021 and 107.215 and 142.287 and 124.198 and 74.8335 and 106.966 and 44.1713 and 97.481 and 39.1658"}, {"measurement": "Steady-state currents", "setting": "Voltage (mV) -30", "value": "26.2905 and 2.297 and 2.248 and 2.097 and 1.35 and 2.687 and 2.39 and 4.071 and 1.181 and 8.895 and 2.9695"}, {"measurement": "Activation tail currents", "setting": "Voltage (mV) -30", "value": "7.534 and 3.411 and 6.987 and 3.037 and 3.42 and 5.381 and 4.729 and 3.695 and 5.67 and 20.6644 and 10.955"}, {"measurement": "peak tail currents (I-V relationship)", "setting": "Voltage (mV) -40", "value": "123.894 and 91.9717 and 106.938 and 138.26 and 129.161 and 68.3308 and 100.665 and 47.0658 and 110.15 and 41.9127"}, {"measurement": "Steady-state currents", "setting": "Voltage (mV) -40", "value": "22.4974 and 1.925 and 1.695 and 1.5162 and 1.5185 and 1.713 and 2.12 and 2.908 and -0.105 and 5.52 and 1.124"}, {"measurement": "Activation tail currents", "setting": "Voltage (mV) -40", "value": "4.388 and 2.505 and 3.124 and 2.236 and 2.355 and 2.6537 and 2.736 and 2.76 and 1.5226 and 9.99 and 3.792"}, {"measurement": "peak tail currents (I-V relationship)", "setting": "Voltage (mV) -50", "value": "102.384 and 84.1154 and 96.6044 and 116.609 and 127.372 and 55.6691 and 86.621 and 46.497 and 109.939 and 41.3172"}, {"measurement": "Steady-state currents", "setting": "Voltage (mV) -50", "value": "1.688 and 1.554 and 1.143 and 1.161 and 1.645 and 1.646 and 2.0814 and 1.85 and -0.735 and 4.1055 and 0.8628"}, {"measurement": "Activation tail currents", "setting": "Voltage (mV) -50", "value": "3.7007 and 2.582 and 2.251 and 2.025 and 2.032 and 1.953 and 2.466 and 2.6 and 0.4988 and 7.116 and 1.746"}, {"measurement": "Activation tail currents", "setting": "Voltage (mV) -60", "value": "4.229 and 3.296 and 2.251 and 1.856 and 2 and 1.917 and 2.331 and 2.577 and 0.3413 and 6.751 and 1.786"}, {"measurement": "Figure 4B value per cell vs Voltage (mV)", "setting": "Voltage -10 mV", "value": "14.8044 and 13.7126 and 12.9375 and 13.3319 and 13.3961"}, {"measurement": "Figure 4B value per cell vs Voltage (mV)", "setting": "Voltage -20 mV", "value": "17.0235 and 15.2047 and 14.605 and 15.0846 and 15.5938"}, {"measurement": "Figure 4D value per cell vs Voltage (mV)", "setting": "Voltage -30 mV", "value": "15.7269 and 18.6316 and 19.1074 and 18.8344 and 16.9058 and 17.0433 and 17.3545"}, {"measurement": "Figure 4D value per cell vs Voltage (mV)", "setting": "Voltage -40 mV", "value": "16.5636 and 18.432 and 19.3043 and 18.0397 and 17.6 and 17.7987 and 17.7833 and 17.6688"}, {"measurement": "Figure 4D value per cell vs Voltage (mV)", "setting": "Voltage -50 mV", "value": "17.1571 and 17.6888 and 17.131 and 15.567 and 16.0065 and 16.8291 and 17.2705 and 17.4541"}, {"measurement": "Figure 5E value per cell vs Voltage (mV)", "setting": "Voltage -50 mV", "value": "902.031 and 870.108 and 1400.85 and 879.311 and 1017 and 1248.9"}, {"measurement": "Figure 5F value per cell vs Voltage (mV)", "setting": "Voltage -50 mV", "value": "6388.9 and 7989.38 and 5622.96"}, {"measurement": "Figure 4D value per cell vs Voltage (mV)", "setting": "Voltage -60 mV", "value": "15.2329 and 15.5388 and 14.7818 and 13.5682 and 12.8587 and 15.0819 and 14.9385 and 15.3669"}, {"measurement": "Figure 5E value per cell vs Voltage (mV)", "setting": "Voltage -60 mV", "value": "1032.08 and 966.812 and 405"}, {"measurement": "Figure 5F value per cell vs Voltage (mV)", "setting": "Voltage -60 mV", "value": "3804.89 and 9449.49 and 8793.8 and 3687.69 and 9196.29"}, {"measurement": "Figure 4D value per cell vs Voltage (mV)", "setting": "Voltage -70 mV", "value": "13.1624 and 13.1509 and 12.2005 and 10.7217 and 10.4496 and 12.0627 and 12.9211 and 13.7327"}]}
